Read-outs that look alike come from different tables or passages of the source.
Legend:
[1] = biological target: Beta Secretase enzyme (BACE) (Homo sapiens, UniProt P56817); experiment: In vitro enzymatic BACE FRET (fluorescence resonance energy transfer) assay; format: biochemical;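 note: fluorescence read after 1 h with 50 nM quenched peptide substrate spanning the BACE cleavage site, in pH 4.2 acetate buffer containing 10% DMSO and nonionic detergent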
[2] = tested on: Aβ40 in conditioned medium of cells stably expressing Amyloid Precursor Protein (APP); experiment: In vitro BACE cell-based assay (Aβ40 in conditioned medium, sandwich ELISA); settings: Homo sapiens;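 note: compounds added as a dilution series, secreted peptide quantified by europium time-resolved fluorescence readout, potency fitted from percent of control versus compound concentration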
CYP3A4 (CYP3A) = CYP3A4 (CYP3A) (Homo sapiens, UniProt P08684); experiment: in vitro; settings: microsomes, pH 7.4;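 note: inhibition of CYP3A-mediated 1-hydroxymidazolam formation after 10 min incubation with NADPH, quantified by HPLC MS relative to metabolite produced without test compound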
Chain of CYP3A4 (CYP3A) (P08684 2-503): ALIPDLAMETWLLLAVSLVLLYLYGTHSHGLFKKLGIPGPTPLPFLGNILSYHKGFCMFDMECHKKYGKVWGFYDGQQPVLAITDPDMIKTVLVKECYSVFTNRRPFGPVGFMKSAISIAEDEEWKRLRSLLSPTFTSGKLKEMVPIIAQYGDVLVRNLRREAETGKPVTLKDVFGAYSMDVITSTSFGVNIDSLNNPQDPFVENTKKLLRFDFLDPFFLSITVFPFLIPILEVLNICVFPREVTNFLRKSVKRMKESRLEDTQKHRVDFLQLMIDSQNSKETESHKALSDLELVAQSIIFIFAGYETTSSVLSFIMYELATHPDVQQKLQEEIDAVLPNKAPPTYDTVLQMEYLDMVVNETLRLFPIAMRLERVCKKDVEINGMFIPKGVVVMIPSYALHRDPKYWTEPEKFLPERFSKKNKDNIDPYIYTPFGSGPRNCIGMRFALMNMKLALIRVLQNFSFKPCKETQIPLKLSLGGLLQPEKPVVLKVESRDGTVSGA

[3] = Microsomal stability assay, rat liver microsomes;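 note: rat liver microsomes (0.25 mg/mL) with about 1 µM compound plus 1 mM NADPH, pH 7.4, 37 °C for 30 min, parent left measured by LC-MS/MS against 0 min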
[4] = Microsomal stability assay, human liver microsomes;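 note: pooled human liver microsomes at 0.25 mg/mL with 1 µM compound and NADPH at 37 °C, pH 7.4, for 30 min, unchanged parent quantified by LC-MS/MS against the 0 min sample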
CYP2D6 = CYP2D6 (Homo sapiens, UniProt P10635); experiment: CYP2D6 inhibition assay (bufuralol, pooled human liver microsomes)
Chain of CYP2D6 (P10635 whole entry): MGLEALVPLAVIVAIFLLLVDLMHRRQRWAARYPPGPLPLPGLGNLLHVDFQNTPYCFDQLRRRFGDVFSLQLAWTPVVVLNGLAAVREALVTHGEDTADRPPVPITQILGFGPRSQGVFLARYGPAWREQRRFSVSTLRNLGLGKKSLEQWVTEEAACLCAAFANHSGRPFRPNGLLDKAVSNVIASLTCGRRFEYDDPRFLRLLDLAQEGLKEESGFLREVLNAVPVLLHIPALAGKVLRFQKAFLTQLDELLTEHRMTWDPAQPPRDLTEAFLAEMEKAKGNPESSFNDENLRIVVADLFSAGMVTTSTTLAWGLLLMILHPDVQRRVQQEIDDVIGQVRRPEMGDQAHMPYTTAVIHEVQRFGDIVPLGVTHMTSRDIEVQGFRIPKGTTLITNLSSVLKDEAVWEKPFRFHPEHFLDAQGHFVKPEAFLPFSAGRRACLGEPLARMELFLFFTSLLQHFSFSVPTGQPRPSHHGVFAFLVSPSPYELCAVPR

[5] = BACE enzyme assay, read-out: BACE1 FRET assay
[6] = HEK293, HEK cells, read-out: HEK cell assay
[7] = 2D6 IC50 (uM), CYP enzyme inhibition
[8] = read-out: BACE1 FRET assay (IC50)
[9] = HEK293, HEK cells, read-out: HEK cell assay (IC50)
[10] = BACE enzyme assay, IC50's in uM, read-out: BACE1 FRET assay
[11] = HEK293, HEK cell-based assay, IC50's in uM, read-out: HEK cell assay
[12] = BACE enzyme assay IC50, read-out: BACE1 FRET assay
[13] = HEK293, HEK cell-based assay IC50, read-out: HEK cell assay
[14] = 2D6 IC50 (uM), CYP2D6 inhibition

Chain of Beta Secretase enzyme (BACE) (P56817 46-501): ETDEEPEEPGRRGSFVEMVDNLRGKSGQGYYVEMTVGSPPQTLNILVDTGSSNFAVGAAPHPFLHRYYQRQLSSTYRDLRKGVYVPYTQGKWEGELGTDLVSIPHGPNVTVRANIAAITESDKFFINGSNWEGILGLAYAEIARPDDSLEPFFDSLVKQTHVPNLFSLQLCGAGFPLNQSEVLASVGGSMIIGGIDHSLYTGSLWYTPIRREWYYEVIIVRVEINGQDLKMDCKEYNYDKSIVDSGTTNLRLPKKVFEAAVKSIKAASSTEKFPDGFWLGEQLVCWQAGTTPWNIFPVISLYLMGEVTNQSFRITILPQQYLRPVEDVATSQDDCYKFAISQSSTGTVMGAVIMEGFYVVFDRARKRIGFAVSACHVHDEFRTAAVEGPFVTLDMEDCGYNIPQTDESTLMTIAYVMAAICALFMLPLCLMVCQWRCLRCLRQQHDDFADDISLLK

Compound | IC50 (CYP3A4 (CYP3A)) [nM] | RLM ([3]; rat liver microsomal data) [µL/min/mg] | HLM ([4]; human liver microsomal data) [µL/min/mg] | IC50 (CYP2D6; [7]) [µM] | RLM ([3]; rat liver microsomes) [µL/min/mg] | HLM ([4]; human liver microsomes) [µL/min/mg] | IC50 [1, 10] [µM] | IC50 [2, 11] [µM] | other results
COCC(=O)N[C@@H](Cc1cc(F)cc(F)c1)[C@H](O)CN[C@@H]1CC2(CCC2)Oc2c1cc(CC(C)(C)C)nc2-c1cnc[nH]1 [compound 509] | 100 | 70 | 74 | 2.3 | – | – | – | – | IC50 [1, 5]: 0.487 µM; IC50 [2, 6]: 0.077 µM
CC(=O)N[C@@H](Cc1cc(F)cc(F)c1)[C@H](O)CN[C@H]1CC2(CCC2)Oc2c1cc(CC(C)(C)C)nc2-c1ccncc1 [compound 584] | 100 | – | – | – | 50 | 18 | – | – | IC50 [1, 8]: 0.011 µM; IC50 [2, 9]: 0.013 µM; IC50 (CYP2D6; 2D6 IC50, CYP2D6 inhibition): 14.5 µM
CO[C@H](C)C(=O)N[C@@H](Cc1ccc2c(c1)OCO2)[C@H](O)CN[C@H]1CC2(CCC2)Oc2c1cc(CC(C)(C)C)nc2N(C)C [compound 444] | 7500 | 662 | 399 | – | – | – | – | – | IC50 ([1]; Table 2, read-out: BACE1 FRET assay): 0.298 µM; IC50 ([2]; HEK293, Table 2, HEK cells, read-out: HEK cell assay): 0.777 µM; IC50 (CYP2D6; 2D6 IC50, CYP enzyme inhibition): 9.4 µM
Cc1nc(CN2CCO[C@H](C(=O)N[C@@H](Cc3ccc(F)cc3)[C@H](O)CN[C@H]3CC4(CCC4)Oc4ncc(CC(C)(C)C)cc43)C2)cs1 [compound 762] | 300 | 522 | 297 | 2.6 | – | – | 0.037 | 0.037 | –
COCC(=O)N[C@@H](Cc1ccc(F)cc1)[C@H](O)CN[C@H]1CC2(CCC2)Oc2c1cc(CC(C)(C)C)nc2C#N [compound 493] | 600 | 221 | 95 | 11.6 | – | – | – | – | IC50 [1, 5]: 0.044 µM; IC50 [2, 6]: 0.471 µM
CC(=O)N[C@@H](Cc1cc(F)cc(-c2cscn2)c1)[C@H](O)CN[C@H]1CC2(CCC2)Oc2ncc(CC(C)(C)C)cc21 [compound 672] | 400 | – | – | – | 134 | 358 | – | – | IC50 [1, 12]: 0.004 µM; IC50 [2, 13]: 0.005 µM; IC50 (CYP2D6; [14]): 2.7 µM
CO[C@H](C)C(=O)N[C@@H](Cc1cc(F)cc(Cl)c1)[C@H](O)CN[C@H]1CC2(CCC2)Oc2ncc(CC(C)(F)F)cc21 [compound 820] | 300 | 324 | 682 | 3.8 | – | – | 0.022 | 0.021 | –
COCC(=O)N[C@@H](Cc1cccc(F)c1)[C@H](O)CN[C@H]1CC2(CCC2)Oc2c1cc(C=C(C)C)cc2-n1ccnc1 [compound 589] | 200 | – | – | – | 217 | 27 | – | – | IC50 [1, 8]: 0.257 µM; IC50 [2, 9]: 0.105 µM; IC50 (CYP2D6; 2D6 IC50, CYP2D6 inhibition): 0.2 µM
COCC(=O)N[C@@H](Cc1cccc(F)c1)[C@H](O)CN[C@H]1CC2(CCC2)Oc2nc3c(cc21)[C@H](C(C)C)CO3 [compound 763] | 2000 | 399 | 399 | 2 | – | – | 2.5 | 1.3 | –
CC(C)(C)Cc1cnc2c(c1)[C@@H](NC[C@@H](O)[C@H](Cc1ccc(F)cc1)NC(=O)[C@@H]1CN(Cc3ccccc3)CCO1)CC1(CCC1)O2 [compound 711] | 300 | – | – | – | 399 | 706 | – | – | IC50 [1, 12]: 0.04 µM; IC50 [2, 13]: 0.124 µM; IC50 (CYP2D6; [14]): 8.2 µM
C#Cc1cccc(C[C@H](NC(=O)[C@@H](C)OC)[C@H](O)CN[C@H]2CC3(CCC3)Oc3ncc(CC(C)C)cc32)c1 [Example 777, (2R)-N-((1S,2R)-1-(3-ethynylbenzyl)-2-hydroxy-3-(((4′S)-6′-(2-methylpropyl)-3′,4′-dihydrospiro[cyclobutane-1,2′-pyrano[2,3-b]pyridin]-4′-yl)amino)propyl)-2-methoxypropanamide] | 100 | 38 | 29 | 2.1 | – | – | 0.006 | 0.013 | –
CO[C@H](C)C(=O)N[C@@H](Cc1cccc(-c2nccs2)c1)[C@H](O)CN[C@H]1CC2(CCC2)Oc2ncc(CC(C)C)cc21 [Example 776, (2R)-N-((1S,2R)-2-hydroxy-3-(((4′S)-6′-(2-methylpropyl)-3′,4′-dihydrospiro[cyclobutane-1,2′-pyrano[2,3-b]pyridin]-4′-yl)amino)-1-(3-(1,3-thiazol-2-yl)benzyl)propyl)-2-methoxypropanamide] | 200 | 61 | 58 | 0.7 | – | – | 0.014 | 0.027 | –
COCC(=O)N[C@@H](Cc1ccc(F)c(-c2ncc(C)s2)c1)[C@H](O)CN[C@H]1CC2(CCC2)Oc2ncc(CC(C)(C)C)cc21 [compound 729] | 400 | – | – | – | 399 | 371 | – | – | IC50 [1, 12]: 0.048 µM; IC50 [2, 13]: 0.291 µM; IC50 (CYP2D6; [14]): 3.9 µM
CC#Cc1cnc2c(c1)[C@@H](NC[C@@H](O)[C@H](Cc1cccc(-c3nccs3)c1)NC(=O)COC)CC1(CCC1)O2 [compound 811] | 300 | 54 | 36 | 1 | – | – | 0.309 | 0.736 | –
COCC(=O)N[C@@H](Cc1cc(F)cc(F)c1)[C@H](O)CN[C@H]1CC2(CCC2)Oc2c(-c3ccncc3)cc(C3CC3)cc21 [compound 783] | 300 | 107 | 73 | 0.3 | – | – | 0.031 | 0.029 | –
C[C@H](F)C(=O)N[C@@H](Cc1cccc(F)c1)[C@H](O)CN[C@H]1CC2(CCC2)Oc2ncc(CC(C)(F)F)cc21 [compound 608] | 4500 | – | – | – | 183 | 232 | – | – | IC50 [1, 8]: 0.008 µM; IC50 [2, 9]: 0.016 µM; IC50 (CYP2D6; 2D6 IC50, CYP2D6 inhibition): 12.2 µM
CC[C@@H](OC)C(=O)N[C@@H](Cc1ccc(F)cc1)[C@H](O)CN[C@H]1CC2(CCC2)Oc2ncc(CC(C)(C)C)cc21 [compound 566] | 300 | 590 | 392 | 13 | – | – | – | – | IC50 [1, 5]: 0.026 µM; IC50 [2, 6]: 0.165 µM
COCC(=O)N[C@@H](Cc1ccc2c(c1)OCO2)[C@H](O)CN[C@H]1CC2(CCC2)Oc2cnc(CC(C)C)cc21 [compound 664] | ≤ 30 | – | – | – | 276 | 193 | – | – | IC50 [1, 8]: 0.118 µM; IC50 [2, 9]: 0.192 µM; IC50 (CYP2D6; 2D6 IC50, CYP2D6 inhibition): 2.3 µM
COCC(=O)N[C@@H](Cc1cc(F)cc(-c2nccs2)c1)[C@H](O)CN[C@H]1CC2(CCC2)Oc2cnc(CC(C)(C)F)cc21 [compound 718, N-((1S,2R)-3-(((4′S)-6′-(2-fluoro-2-methylpropyl)-3′,4′-dihydrospiro[cyclobutane-1,2′-pyrano[2,3-c]pyridin]-4′-yl)amino)-1-(3-fluoro-5-(1,3-thiazol-2-yl)benzyl)-2-hydroxypropyl)-2-methoxyacetamide] | 300 | – | – | – | 140 | 113 | – | – | IC50 [1, 12]: 0.051 µM; IC50 [2, 13]: 0.062 µM; IC50 (CYP2D6; [14]): 0.5 µM
CCOCC(=O)N[C@@H](Cc1ccc2c(c1)OCO2)[C@H](O)CN[C@H]1CC2(CCC2)Oc2ncc(CC(C)(C)C)cc21 [Example 772, N-((1S,2R)-1-(1,3-benzodioxol-5-ylmethyl)-3-(((4′S)-6′-(2,2-dimethylpropyl)-3′,4′-dihydrospiro[cyclobutane-1,2′-pyrano[2,3-b]pyridin]-4′-yl)amino)-2-hydroxypropyl)-2-ethoxyacetamide] | 200 | 112 | 28 | 1.1 | – | – | 0.021 | 0.042 | –
COCC(=O)N[C@@H](Cc1cccc(F)c1)[C@H](O)CN[C@H]1CC2(CCC2)Oc2ccc(C[C@@H](C)F)cc21 [compound 559] | 7100 | 829 | 706 | 1.1 | – | – | – | – | IC50 [1, 5]: 0.027 µM; IC50 [2, 6]: 0.038 µM
COCC(=O)N[C@@H](Cc1ccc(F)cc1)[C@H](O)CN[C@H]1CC2(CCC2)Oc2c1cc(CC(C)(C)C)nc2Nc1ccccc1 [compound 612] | ≥ 27000 | – | – | – | 245 | 176 | – | – | IC50 [1, 8]: 0.21 µM; IC50 [2, 9]: > 10 µM; IC50 (CYP2D6; 2D6 IC50, CYP2D6 inhibition): ≥ 27 µM
CC(=O)N[C@@H](Cc1ccc(F)c(-c2ncc[nH]2)c1)[C@H](O)CN[C@H]1CC2(CCC2)Oc2ncc(CC(C)(C)C)cc21 [Example 428, N-((2S,3R)-4-((S)-2,2-spirocyclobutyl-6-neopentyl-3,4-dihydro-2H-pyrano[2,3-b]pyridin-4-ylamino)-1-(4-fluoro-3-(1H-imidazol-2-yl)phenyl)-3-hydroxybutan-2-yl)acetamide] | 300 | – | – | – | 124 | 225 | – | – | IC50 [1, 12]: 0.061 µM; IC50 [2, 13]: 0.013 µM; IC50 (CYP2D6; [14]): 1.3 µM
